Experimental findings from ChEMBL document CHEMBL3046201, “Insights into the molecular mechanism of tolerance to carboxylic acid amide (CAA) fungicides in Pythium aphanidermatum” (2012) are described below.

In experiment [1] the test system is Pythium aphanidermatum. The experiment in a line: Inhibition of germ tube elongation of Pythium aphanidermatum synchronised cytospores at 500 uM after 4 hr. Format: functional.
In experiment [2] the test system is Pythium aphanidermatum. The experiment in a line: Inhibition of germ tube elongation of Pythium aphanidermatum synchronised cytospores at >100 uM after 4 hr. The format is functional, organism-based.
Experiment [3] deals with Pythium aphanidermatum. Nature of the experiment: Inhibition of zoospores encystment of Pythium aphanidermatum synchronised cytospores at 100 uM after 4 hr. Format: functional, organism-based.
In experiment [4] the test system is Pythium aphanidermatum. Nature of the experiment: Inhibition of zoospores release of Pythium aphanidermatum synchronised cytospores at 100 uM after 4 hr. The format is functional, organism-based.
The test system of the next experiment is Saprolegnia monoica. Nature of the experiment: Antifungal activity against Saprolegnia monoica assessed as inhibition of mycelial growth at 200 uM after 3 days. The format is functional. To be noted: 72 h, read-out: GI.
The subject of experiment [5] is Pythium aphanidermatum. The experiment in a line: Antifungal activity against Pythium aphanidermatum assessed as inhibition of mycelial growth at 200 uM after 3 days. To be noted: 72 h, read-out: GI. The format is functional.
Experiment [6] deals with Pythium aphanidermatum. Nature of the experiment: Down-regulation of CesA4 gene expression in Pythium aphanidermatum at 200 uM after 0.5 to 4 hr by qRT-PCR method. The format is functional, organism-based.
Experiment [7] concerns Pythium aphanidermatum. The experiment in a line: Down-regulation of CesA3 gene expression in Pythium aphanidermatum at 200 uM after 0.5 to 4 hr by qRT-PCR method. The format is functional, organism-based. In general terms: In qPCR the cycle at which signal appears reflects the starting amount.
The subject of experiment [8] is Pythium aphanidermatum. The experiment in a line: Down-regulation of CesA2 gene expression in Pythium aphanidermatum at 200 uM after 0.5 to 4 hr by qRT-PCR method. Format: functional, organism-based.
Experiment [9] relates to Pythium aphanidermatum. The experiment in a line: Down-regulation of CesA1 gene expression in Pythium aphanidermatum at 200 uM after 0.5 to 4 hr by qRT-PCR method. Format: functional, organism-based.
Experiment [10] deals with Pythium aphanidermatum. The experiment in a line: Effect on PaChs gene expression in Pythium aphanidermatum at 100 uM after 0.5 to 8 hr by qRT-PCR method. Format: functional, organism-based.
For experiment [11], the system named is Pythium aphanidermatum. The experiment in a line: Effect on CesA4 gene expression in Pythium aphanidermatum at 100 uM after 0.5 to 8 hr by qRT-PCR method. The format is functional, organism-based.
Experiment [12] concerns Pythium aphanidermatum. The experiment in a line: Effect on CesA3 gene expression in Pythium aphanidermatum at 100 uM after 0.5 to 8 hr by qRT-PCR method. The format is functional, organism-based.
The test system of experiment [13] is Pythium aphanidermatum. The experiment in a line: Effect on CesA4 gene expression in Pythium aphanidermatum at 200 uM after 8 hr by qRT-PCR method. Format: functional, organism-based.
Experiment [14] has as its system Pythium aphanidermatum. Nature of the experiment: Effect on CesA3 gene expression in Pythium aphanidermatum at 200 uM after 8 hr by qRT-PCR method. Format: functional, organism-based.
The test system of experiment [15] is Pythium aphanidermatum. Nature of the experiment: Effect on CesA1 gene expression in Pythium aphanidermatum at 200 uM after 8 hr by qRT-PCR method. Format: functional, organism-based.
Experiment [16] has as its system Pythium aphanidermatum. The experiment in a line: Effect on CesA2 gene expression in Pythium aphanidermatum at 200 uM after 8 hr by qRT-PCR method. Format: functional, organism-based.
Experiment [17] has as its system Pythium aphanidermatum. Nature of the experiment: Effect on PaChs gene expression in Pythium aphanidermatum at 200 uM after 0.5 to 8 hr by qRT-PCR method. The format is functional, organism-based.
In experiment [18] the test system is Pythium aphanidermatum. Nature of the experiment: Inhibition of germ tube elongation of Pythium aphanidermatum synchronised cytospores at 0.5 to 121 uM after 4 hr. Format: functional, organism-based.
Experiment [19] deals with Pythium aphanidermatum. Nature of the experiment: Antifungal activity against Pythium aphanidermatum assessed as inhibition of mycelial growth at 100 uM after 3 days. To be noted: 72 h, read-out: GI. The format is functional.
Experiment [20] concerns Pythium aphanidermatum. Nature of the experiment: Antifungal activity against Pythium aphanidermatum assessed as inhibition of mycelial growth at 10 uM after 3 days. Format: functional, organism-based.
The subject of experiment [21] is Pythium aphanidermatum. Nature of the experiment: Up-regulation of CesA2 gene expression in Pythium aphanidermatum at 100 uM after 8 hr by qRT-PCR method relative to untreated control. Format: functional.
Experiment [22] has as its system Pythium aphanidermatum. The experiment in a line: Up-regulation of CesA1 gene expression in Pythium aphanidermatum at 100 uM after 8 hr by qRT-PCR method relative to untreated control. The format is functional.

The source made the active and inactive calls. The calls are words filed in the database; no cut-off is given here.

With `N#Cc1c(Cl)cccc1Cl` [DICHLOBENIL], the inhibition (commonly the change of the read-out against control, counted positive when it falls) at 500 µM in the experiment with Pythium aphanidermatum [1] is 18%. Also, the inhibition entry with Pythium aphanidermatum [2] was “Active”. For the same molecule, the inhibition result in the experiment with Pythium aphanidermatum [3] and in the experiment on Pythium aphanidermatum [4] was “inactive” each time. Moreover, the inhibition of growth at 200 µM in the experiment on Saprolegnia monoica was found to be 40%; in the experiment on Pythium aphanidermatum [5], 12%. Also, the outcome with Pythium aphanidermatum [6], in the experiment on Pythium aphanidermatum [7], in the experiment on Pythium aphanidermatum [8] and in the experiment on Pythium aphanidermatum [9] was Active. In addition, the result in the experiment on Pythium aphanidermatum [10], with Pythium aphanidermatum [11], with Pythium aphanidermatum [12], in the experiment on Pythium aphanidermatum [13], in the experiment on Pythium aphanidermatum [14] and in the experiment with Pythium aphanidermatum [15] was inactive. Besides, the outcome with Pythium aphanidermatum [16] and in the experiment with Pythium aphanidermatum [17] was inactive.
On to `C#CCOc1ccc(CCNC(=O)C(OCC#C)c2ccc(Cl)cc2)cc1OC` (stereo not drawn) [MANDIPROPAMID], for which the inhibition entry with Pythium aphanidermatum [18] was “inactive”. Further, the inhibition of growth at 100 µM in the experiment on Pythium aphanidermatum [19] worked out at 34%. In the experiment on Pythium aphanidermatum [20], the “growth inhibition (GI)” value was “inactive”. Also, the “fold change (FC)” value in the experiment on Pythium aphanidermatum [21] turned out to be 2; in the experiment with Pythium aphanidermatum [22], 1.6.
